Patent publication US20050112131A1, “Methods of adjuvant photodynamic therapy to enhance radiation sensitization” (priority 2002, published 2005)

Experiments:
RIF-1 tumors [1] = experiment: Tumor pO2 by EPR oximetry during verteporfin photodynamic therapy; type: in vivo, mice
Method: Measurements of tumor partial pressure of oxygen (pO2) were taken in mice that harbored tumors derived from injection of transformed cells. Radiation-induced fibrosarcoma (RIF-1) cells were used for in vivo studies. RIF-1 cells were obtained from the National Cancer Institute (NCI) and originated from the laboratory of James B. Mitchell. The cells were grown in culture in RPMI 1640 cell culture medium, supplemented with 10% fetal bovine serum (FBS), L-glutamine, and appropriate antibiotics. The cells were not passaged more than four times from the original stock. Cell cultures were scaled up to large culture flasks, then removed and resuspended in medium lacking FBS and injected at 4×10^6 cells/mouse in a 50 μl volume. Intradermal injection delivered the cancer cells into the upper right leg of female C3h/HeJ mice (age 5-6 weeks) approximately 11-14 days before the anticipated treatment time.
Verteporfin was obtained from QLT Phototherapeutics Inc. (Vancouver, BC, Canada) for use as photosensitizer. The photoactive molecule is a benzoporphyrin derivative mono-acid ring ‘A’ (BPD-MA), which was suspended in a lipid preparation comprising 1.77% of BPD-MA and the remaining 98.23% composed of the lipids. Verteporfin was reconstituted in phosphate buffered saline (PBS) at a final concentration of 0.2 mg BPD-MA/ml, then injected into mice lateral tail vein to deliver a dose of 1 mg BPD-MA per kg of body weight. The drug was allowed to incubate for varying times prior to light exposure.
A diode laser system with 200 mW average power was used, at a wavelength of 690 nm (Applied Optronics, South Plainfield, Conn.). The beam was delivered to the tumor site in animals through a 140 μm fiber-optic, and was expanded onto the tumor in a circular top-hat beam, using a fiber-optic collimator (Thor Labs, North Newton, N.J.). The beam diameter for in vivo experiments was 1.1 cm, producing an irradiance of 200 mW/cm^2. Light treatment was given transcutaneously with shaven animals.
Animals were anesthetized by isoflurane at a concentration of 1.5% mixed with 26% oxygen in a continuous flow, delivered by inhalation. The animal was maintained at 37° C. on a heated water pad. Warm air was allowed to flow over the animal. In the first treatment group, tumors were exposed to light three hours after verteporfin injection. The second group received light only 15 minutes after injection. These animals were monitored for tumor pO2 before, during, and after treatment. The second experimental group is thought to be indicative of eliciting a vascular occlusion response, and contrasts effects from 3-hour photosensitizer incubation. The third group received light without prior photosensitizer injection.
Tumor pO2 was monitored with an oxygen-sensitive electron paramagnetic resonance (EPR) probe material, synthetic lithium phthalocyanine (LiPc), which was implanted into tissue and allowed for stable measurements of tissue pO2 over several weeks. […] LiPc molecules between 50 and 200 μm in diameter were implanted into the animal tumors with a 23-gauge needle at least 24 hours before photodynamic therapy, allowing for resolution of acute fluctuations in pO2 due to injection. The particles were implanted at a depth of 1-3 mm within the tumor.
The animals were placed in an L-band (1.2 GHz) EPR spectrometer with a custom-made microwave bridge for measurements of tissue pO2. The external loop resonator was positioned over the tumor to record the EPR signal of the LiPc from within the tissue. […]

RIF-1 tumors [2] = experiment: Tumor regrowth assay, photodynamic therapy alone or combined with radiation; type: in vivo, mice
Method: The combination effect of photodynamic therapy and radiation therapy was examined in in vivo tumor models. Injection of PBD or saline (control) was given 3 hours prior to irradiation in all animals. Light at 690 nm wavelength was delivered t the photodynamic therapy treated animals while the animal was positioned in the irradiator cone. An irradiance of 133 mW/cm^2 was used for a total of 12 minutes, for a total dose of 100 J/cm^2. Radiation was administered at a single dose of 10 Gy (300 keV, 10 mA, HVL=2.33 Gy/min). The following groups were organized: (1) sham-irradiated controls, (2) radiation treatment alone, (3) photodynamic therapy alone, (4) radiation treatment followed by photodynamic therapy, and (5) photodynamic therapy with simultaneous radiation treatment. In Group 4, X-ray radiation was administered for the full 3-minute treatment period after the photosensitizer was injected and incubated in the animal for 3 hours, then irradiation was given for 12 minutes. The Group 5 animals received irradiation 3 hours after drug injection, and during the last three minutes of the irradiation. X-ray irradiation was also given to the tumor at the same time.
Irradiation using the 10 Gy dose using approximately 300 keV was delivered in 3 minutes from a Pantak Therapax 300 orthovoltage irradiator, using a 2 cm collimation cone. This cone was contacted with a region of the mouse leg surrounding the tumor. The end of the collimation cone was comprised of transparent plastic, allowing radiation and treatment to occur at the same time (required for Group 5, where photodynamic therapy and radiation were simultaneously administered). All animals were treated with the cone in place, as well as Group 1 sham-irradiated mice and Group 3 photodynamic therapy alone mice. This was performed to ensure equal doses of light were given to all groups, which included changes in the beam from reflection and refraction through the irradiator cone.
Each group of mice were assayed for tumor regrowth following combined radiation/photodynamic therapy, radiation alone, or photodynamic therapy alone. The resulting treatment effect was assayed by calculation of tumor volume, as calculated by measurement of the three major axis dimensions: Volume≅Length×Width×Height/2 The time for a tumor to reach double its volume on the day of treatment was calculated for each individual animal separately, by estimating the data by a linear fit to logarithmic growth curves versus time. The average values from these times to double in volume were determined for each group of mice. Analysis of the tumor regrowth data, estimates of the mean double time (including standard deviation), and mice heterogeneity was achieved by generating individual growth curve data and fitting with a mixed effect model. It was assumed that after day 3, the tumor re-grows exponentially, which corresponds to a linear function when plotted on a semi-logarithmic graph. The time for a tumor to reach double its volume on the day of treatment was calculated for each group along with the respective standard deviation. The standard error gives rise to the group comparison using X-test to account for significant differences between the mean values of the different treatment groups.

[3] = Group 4, radiation (10 Gy) then PDT
[4] = Group 5, PDT with simultaneous radiation (10 Gy)

benzoporphyrin derivative mono-acid ring ‘A’ (BPD-MA) [Verteporfin]
tumor pO2 at 1 h post-treatment (RIF-1 tumors [1]; 1 mg/kg BPD-MA i.v., light 3 hours after injection): returned to within control, or pre-treatment values
final tumor pO2 immediately after treatment (RIF-1 tumors [1]; 1 mg/kg BPD-MA i.v., light 3 hours after injection, 690 nm, 144 J/cm^2, p=0.048 vs control): 15.2±6.9 mm Hg
initial tumor pO2 (RIF-1 tumors [1]; 1 mg/kg BPD-MA i.v., light 3 hours after injection, value before light): 2.8±1.0 mm Hg
average tumor pO2 prior to light exposure (RIF-1 tumors [1]; 1 mg/kg BPD-MA injected 15 min prior to irradiation): 6.8±1.6 mm Hg
average tumor pO2 immediately following treatment (RIF-1 tumors [1]; 1 mg/kg BPD-MA injected 15 min prior to irradiation (vascular targeting)): 4.1±0.3 mm Hg
Re-growth Delay in Doubling Time (RIF-1 tumors [2]; Group 3, PDT only): 3.2 ± 1.7
slope of the natural logarithm of tumor volume versus days (RIF-1 tumors [2]; Group 3, PDT only): 0.13
Time for Tumor to Double Initial Volume (RIF-1 tumors [2]; Group 3, PDT only, injection 3 hours before 690 nm light, 100 J/cm^2): 8.9 ± 1.7
Re-growth Delay in Doubling Time (RIF-1 tumors [2]; [3]): 5.4 ± 1.4
Time for Tumor to Double Initial Volume (RIF-1 tumors [2]; [3]): 11.0 ± 1.5
slope of the natural logarithm of tumor volume versus days (RIF-1 tumors [2]; Group 4, radiation then PDT): 0.13
slope of the natural logarithm of tumor volume versus days (RIF-1 tumors [2]; Group 5, PDT with simultaneous radiation): 0.11
Re-growth Delay in Doubling Time (RIF-1 tumors [2]; [4]): 8.1 ± 1.5
Time for Tumor to Double Initial Volume (RIF-1 tumors [2]; [4]): 13.7 ± 1.6
